{"source": "patent US20030086923A1", "about": "“Method for the prevention and/or treatment of atherosclerosis” (priority 1999, published 2003)", "key": {"[1]": {"system": "THP-1 macrophages", "assay": "Stimulation of cholesterol efflux from cultured THP-1 macrophages", "format": "cell-based, human", "details": "24 hours, 10 μg/ml apoA-I acceptor, mean±SEM, DMSO control 9.9 ± 0.5", "text": "Stimulation of Cholesterol Efflux from Cultured Cells\nPatients with Tangier disease have mutations in the ABC1 gene and have very low HDL levels. Cultured cells from these patients are defective in cholesterol efflux (Francis et al. (1995) J. Clin. Invest. 96:78-87). Therefore, induction of ABC1 mRNA should lead to increased cholesterol efflux and increased HDL levels (Francis et al. (1999) Clinica Chimica Acta 286:219-230). TIIP-1 cells were used to determine whether induction of ABC1 mRNA by Compound 1 would increase cholesterol efflux. Specifically, cultured human THP-1 cells were stimulated to differentiate into macrophages by incubation with 100 nM tetradecanoyl phorbol acetate for three days, as described above. After differentiation, the TUP-1 macrophages were labeled with ^3H-cholesterol by incubation for 24 hours with 10 μCi/ml ^3H-cholesterol in Complete RPMI media containing 0.1% lipid-free bovine serum albumin (BSA) plus 100 nM tetradecanoyl phorbol acetate. After labeling, the cells were incubated for 24 hours in Complete RPMI media with 0.1% lipid-free bovine serum albumin (BSA) to allow for equilibration of cellular cholesterol pools. Cholesterol efflux was then measured over the following 24 hours by incubating the cells in Complete RPMI media containing 10 μg/ml of apoA-I as cholesterol acceptor, and either Compound 1 or DMSO as control."}, "[2]": {"system": "cholesterol-loaded THP-1 macrophages", "assay": "Stimulation of cholesterol efflux from cholesterol-loaded THP-1 macrophages", "format": "cell-based, human", "details": "1 μM, 24 hours, mean±SEM", "text": "Stimulation of Cholesterol Efflux from Cholesterol-Loaded Cells\nTo determine if LXR agonists could increase cholesterol efflux in cells that were loaded with excess cholesterol, THP-1 cells were loaded with cholesterol using acetylated LDL prior to the assay of cholesterol efflux Specifically, cultured human THP-1 cells were stimulated to differentiate into macrophages as described above. After differentiation, the THP-1 macrophages were loaded with cholesterol and simultaneously labeled with ^3H-cholesterol using acetylated LDL containing ^3H-cholesterol essentially as described by Kritharides et al. (1998) Arterioscler Thromb Vasc Biol. 18:1589-1599. After 24 hours of incubation with 100 μg/ml of acetylated LDL labelled with ^3H-cholesterol, the cells were incubated in Complete RPMI medium containing 0.1% lipid-free BSA for 24 hours to allow for equilibration of cellular cholesterol pools. Cholesterol efflux was then measured over the following 24 hours by incubating the cells in Complete RPMI medium with either apoA-I or HDL as cholesterol acceptor, and with either 1 μM Compound 1 or DMSO as control."}, "[3]": {"target": "T1, human PPARδ (Homo sapiens, UniProt Q03181)", "T1 sequence (Q03181 1-441)": "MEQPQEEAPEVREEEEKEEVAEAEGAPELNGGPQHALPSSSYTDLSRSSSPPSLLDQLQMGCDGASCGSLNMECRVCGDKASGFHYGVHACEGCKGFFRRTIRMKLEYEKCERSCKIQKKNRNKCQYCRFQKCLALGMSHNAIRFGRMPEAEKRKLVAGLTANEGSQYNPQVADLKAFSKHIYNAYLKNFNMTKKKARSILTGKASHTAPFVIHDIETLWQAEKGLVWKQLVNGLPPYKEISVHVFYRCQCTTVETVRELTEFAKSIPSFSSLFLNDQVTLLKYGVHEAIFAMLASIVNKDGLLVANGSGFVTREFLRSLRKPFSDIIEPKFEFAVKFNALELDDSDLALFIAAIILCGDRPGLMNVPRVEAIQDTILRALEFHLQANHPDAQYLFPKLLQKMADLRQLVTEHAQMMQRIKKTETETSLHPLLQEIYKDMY", "assay": "PPARδ competition binding assay", "text": "(§1) The term ligand throughout this application should be understood to include an agonist, partial agonist or antagonist of LXR. The ligand may be selective for LXRα or LXRβ, or it may have mixed binding affinity for both LXRα and LXRβ. Particularly, compounds within the scope of this invention include those which have greater selectivity as determined by binding affinity for LXRα and/or LXRβ receptors than they have for each of the PPARα, γ and δ receptors."}, "[4]": {"target": "T2, human PPARγ (Homo sapiens, UniProt P37231)", "T2 sequence (P37231 1-505)": "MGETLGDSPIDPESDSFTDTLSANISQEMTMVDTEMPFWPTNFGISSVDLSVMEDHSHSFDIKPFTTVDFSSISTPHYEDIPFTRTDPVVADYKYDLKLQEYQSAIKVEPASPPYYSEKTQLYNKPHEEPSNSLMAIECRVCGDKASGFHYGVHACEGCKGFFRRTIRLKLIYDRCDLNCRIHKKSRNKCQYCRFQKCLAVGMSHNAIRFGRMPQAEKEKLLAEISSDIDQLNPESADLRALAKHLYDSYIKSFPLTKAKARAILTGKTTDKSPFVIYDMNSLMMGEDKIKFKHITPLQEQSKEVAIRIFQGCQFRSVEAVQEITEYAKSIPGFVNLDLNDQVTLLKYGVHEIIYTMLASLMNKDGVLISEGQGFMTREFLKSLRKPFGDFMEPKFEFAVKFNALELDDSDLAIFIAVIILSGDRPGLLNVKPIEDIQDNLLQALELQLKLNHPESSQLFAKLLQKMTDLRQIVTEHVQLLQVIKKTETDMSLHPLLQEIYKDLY", "assay": "PPARγ competition binding assay", "text": "as §1"}, "[5]": {"target": "T3, human GST-LXRα receptor (Homo sapiens, UniProt Q13133)", "T3 construct": "made in house; host or cells: E. coli (pGEX-KT vector)", "T3 sequence (Q13133 164-447)": "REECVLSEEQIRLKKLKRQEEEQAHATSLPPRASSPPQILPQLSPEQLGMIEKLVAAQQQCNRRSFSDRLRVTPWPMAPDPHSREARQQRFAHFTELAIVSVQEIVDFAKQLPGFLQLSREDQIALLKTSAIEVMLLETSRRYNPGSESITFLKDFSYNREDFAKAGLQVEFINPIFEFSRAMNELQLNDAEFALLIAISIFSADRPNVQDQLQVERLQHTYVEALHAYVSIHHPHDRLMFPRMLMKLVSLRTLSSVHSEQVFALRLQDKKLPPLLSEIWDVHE", "assay": "Radioligand competition binding scintillation proximity assay, LXRα", "text": "Radioligand Competition Binding Scintillation Proximity Assays:\nPreparation of Recombinant Human LXRα and LXRβ:\nHuman LXRα and LXRβ were expressed as GST-fusion proteins in E. coli. The ligand binding domain cDNAs for human LXRα (amino acids 164-447) and human LXRβ (amino acids 149-455) were subcloned into the pGEX-KT expression vector (Pharmacia). E. coli containing the respective plasmids were propagated, induced, and harvested by centrifugation. The resuspended pellet was broken in a French press and debris was removed by centrifugation. Recombinant human LXR receptors were purified by affinity chromatography on glutathione sepharose and receptor was eluted with glutathione. Glycerol was added to a final concentration of 50% to stabilize the receptor and aliquots were stored at −80° C.\nAfter incubation for ˜16 h at 15° C. with shaking, the assay plates were counted in a Packard Topcount."}}}
{"smiles": "CC(=O)Oc1ccc2c(c1)[C@@]1(C)CCC[C@](C)(C(=O)OC(=O)[C@@]3(C)CCC[C@]4(C)c5cc(OC(C)=O)ccc5CC[C@@H]34)[C@@H]1CC2", "note": "[Compound 1]", "values": [{"measurement": "Cholesterol efflux (% of cell contents)", "setting": "[1]; 0.02 μM", "result": "14.6 ± 0.5 % of cell contents"}, {"measurement": "Cholesterol efflux (% of cell contents)", "setting": "[1]; 2.5 μM", "result": "17.1 ± 0.6 % of cell contents"}, {"measurement": "Cholesterol efflux (% of cell contents)", "setting": "[2]; acceptor 10 μg/ml apoA-I, DMSO control 6.4 ± 0.3", "result": "10.3 ± 0.4 % of cell contents"}, {"measurement": "Cholesterol efflux (% of cell contents)", "setting": "[2]; acceptor 25 μg/ml HDL, DMSO control 14.9 ± 0.5", "result": "18.6 ± 0.7 % of cell contents"}, {"measurement": "IC50", "setting": "[3]", "result": "> 10000", "unit": "nM"}, {"measurement": "IC50", "setting": "[4]", "result": "> 10000", "unit": "nM"}, {"measurement": "IC50", "setting": "[5]", "result": 80, "unit": "nM"}, {"measurement": "Ki", "setting": "[5]; read-out: LXRα calculated Ki", "result": "~30", "unit": "nM"}]}
